Measured values reported in article PMC3362798 (Bioorganic & medicinal chemistry letters, 2012).
Where two headings read alike, the source gives them in different places. Blank lines part the entries; values can stand above or below the compound they belong to.

Columns and labels:
NPY Y2 receptor = molecular target: T1, NPY Y2 receptor (Homo sapiens, UniProt P49146); test: cAMP biosensor assay, NPY Y2 receptor antagonism; assay type: cell-based; conditions: for fold increase in potency compared to SF-11: more potent than SF-11
T1 sequence (P49146 1-381): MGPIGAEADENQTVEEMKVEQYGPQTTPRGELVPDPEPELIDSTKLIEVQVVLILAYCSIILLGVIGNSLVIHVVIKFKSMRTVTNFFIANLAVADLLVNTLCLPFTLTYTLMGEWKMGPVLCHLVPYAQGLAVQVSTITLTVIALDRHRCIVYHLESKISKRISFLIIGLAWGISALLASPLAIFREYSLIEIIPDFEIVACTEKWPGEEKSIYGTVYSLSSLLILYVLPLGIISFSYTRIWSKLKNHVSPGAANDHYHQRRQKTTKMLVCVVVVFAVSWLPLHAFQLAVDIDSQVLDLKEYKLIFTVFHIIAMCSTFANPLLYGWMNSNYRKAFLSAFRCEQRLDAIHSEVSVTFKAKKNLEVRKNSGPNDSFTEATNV

[1] = cited from earlier work
[2] = test system: NPY Y1 and 38 off-target receptors, including GPCRs, transporters and ion-channels; conditions: cited from earlier work
mice = conditions: intracerebroventricular (icv) administration; cited from earlier work
rats = conditions: intracerebroventricular (icv) administration; cited from earlier work
NPY Y2 = NPY Y2 antagonist; cited from earlier work

Structure (SMILES): CCN(CC)C(=O)c1cccc(OC(=O)N2CCC(C(O)(c3ccccc3)c3ccccc3)CC2)c1 [Compound 64]
NPY Y2 antagonist activity (in words) (NPY Y2 receptor): no activity

Structure (SMILES): CCOc1ccc(NC(=S)N2CCC(C(O)(c3ccccc3)c3ccccc3)CC2)cc1 [SF-11, N-(4-ethoxyphenyl)-4-[hydroxy(diphenyl)methyl]piperidine-1-carbothioamide]
brain penetration ([1]; HTS hit chemotypes): brain-penetrant
selectivity against NPY Y1 and 38 off-target receptors [2]: selective

Structure (SMILES): CCOc1ccc(NC(=S)N2CCC(C(O)(c3ccccc3)c3ccccc3)CC2)c(C(F)(F)F)c1 [Compound 28]
NPY Y2 antagonist activity (in words) (NPY Y2 receptor): complete loss of activity

Structure (SMILES): N=C(N)NCCC[C@H](NC(=O)CC1(CC(=O)N2CCN(C3c4ccccc4NC(=O)c4ccccc43)CC2)CCCC1)C(=O)NCCn1c(=O)n(-c2ccccc2)n(-c2ccccc2)c1=O (stereo partly shown) [BIIE0246]
antidepressant-like effects (mice): induced antidepressant-like effects
ethanol consumption (rats): decreased ethanol consumption
brain penetration ([1]; BIIE0246): poor brain penetration
IC50 (NPY Y2): 3.3 nM

Structure (SMILES): CCN(CC)C(=O)c1ccc(OC(=O)N2CCC(C(O)(c3ccccc3)c3ccccc3)CC2)cc1 [Compound 60]
fold less potent than N,N-diethyl sulfonamide analogue 54 (NPY Y2 receptor; compared with 54): 18 fold

Structure (SMILES): Cc1ccc(S(=O)(=O)C(c2ccccc2)c2c(C)noc2C)cc1 (stereo not shown) [SF-41]
brain penetration ([1]; HTS hit chemotypes): brain-penetrant
selectivity against NPY Y1 and 38 off-target receptors [2]: selective

Structure (SMILES): CCN(CC)C(=O)c1ccc(NC(=S)N2CCC(C(O)(c3ccccc3)c3ccccc3)CC2)cc1 [Compound 15]
fold more potent than N,N-dimethylamide analogue 14 (NPY Y2 receptor; compared with 14): 4 fold

Structure (SMILES): CCOc1ccc(NC(=S)N2CCN(C(c3ccccc3)c3ccccc3)CC2)cc1 [Compound 36]
NPY Y2 antagonist activity (in words) (NPY Y2 receptor): retained the activity

Structure (SMILES): CN(C)S(=O)(=O)c1ccc(NC(=S)N2CCN(C3c4ccccc4CCc4ccccc43)CC2)cc1 [Compound 45]
NPY Y2 antagonist activity (in words) (NPY Y2 receptor): inactive

Structure (SMILES): COc1cccc(-c2nc(-c3ccc(NC(=O)Cc4ccccc4OC)cc3)no2)c1 [SF-31]
brain penetration ([1]; HTS hit chemotypes): brain-penetrant
selectivity against NPY Y1 and 38 off-target receptors [2]: selective

Structure (SMILES): CCN(CC)c1ccc(NC(=S)N2CCC(C(O)(c3ccccc3)c3ccccc3)CC2)cc1 [Compound 8]
fold increase in potency compared to SF-11 (NPY Y2 receptor): ~3 fold

Structure (SMILES): Cc1ccc(C)c(NS(=O)(=O)c2cc(C(=O)Nc3ccccc3-c3ccccc3)ccc2C)c1 [SF-21]
brain penetration ([1]; HTS hit chemotypes): brain-penetrant
selectivity against NPY Y1 and 38 off-target receptors [2]: selective

Next, values leading:

NPY Y2 antagonist activity (in words) (NPY Y2 receptor): complete loss of activity
Structure (SMILES): CCOc1ccc(NC(=S)N2CCC(C(O)(c3ccccc3)c3ccccc3)CC2)c(C)c1 [Compound 27]

NPY Y2 antagonist activity (in words) (NPY Y2 receptor): completely lost the activity
Structure (SMILES): CC(=O)Nc1ccc(OC(=O)N2CCC(C(O)(c3ccccc3)c3ccccc3)CC2)cc1 [Compound 61]

NPY Y2 antagonist activity (in words) (NPY Y2 receptor): no activity
Structure (SMILES): COC(c1ccccc1)(c1ccccc1)C1CCN(C(=S)Nc2ccc(S(=O)(=O)N(C)C)cc2)CC1 [Compound 35]

NPY Y2 antagonist activity (in words) (NPY Y2 receptor): completely lost the activity
Structure (SMILES): CCC(=O)Nc1ccc(OC(=O)N2CCC(C(O)(c3ccccc3)c3ccccc3)CC2)cc1 [Compound 62]

NPY Y2 antagonist activity (in words) (NPY Y2 receptor): complete loss of activity
Structure (SMILES): CCOc1ccc(NC(=S)N2CCC(C(O)(c3ccccc3)C3CCCCC3)CC2)cc1 (stereo not shown) [Compound 38]

NPY Y2 antagonist activity (in words) (NPY Y2 receptor): complete loss of activity
Structure (SMILES): OC(c1ccccc1)(c1ccccc1)C1CCN(C(=S)Nc2ccccc2)CC1 [Compound 1]

NPY Y2 antagonist activity (in words) (NPY Y2 receptor): partial antagonism
Structure (SMILES): CCOC(=O)c1cccc(NC(=S)N2CCC(C(O)(c3ccccc3)c3ccccc3)CC2)c1 [Compound 22]

fold increase in potency compared to SF-11 (NPY Y2 receptor): 10 fold
Structure (SMILES): CN(C)S(=O)(=O)c1ccc(NC(=S)N2CCC(C(O)(c3ccccc3)c3ccccc3)CC2)cc1 [Compound 16]

fold less potent than SF-11 (NPY Y2 receptor; less potent than SF-11): ~7 fold
Structure (SMILES): CCOc1ccc(NC(=S)N2CCC(C(O)(c3ccccc3)c3ccccc3)CC2)c(F)c1 [Compound 30]

NPY Y2 antagonist activity (in words) (NPY Y2 receptor): retained the antagonist activity
Structure (SMILES): CS(=O)(=O)Nc1ccc(OC(=O)N2CCC(C(O)(c3ccccc3)c3ccccc3)CC2)cc1 [Compound 63]

NPY Y2 antagonist activity (in words) (NPY Y2 receptor): no activity
Structure (SMILES): CCN(CC)S(=O)(=O)c1cccc(OC(=O)N2CCC(C(O)(c3ccccc3)c3ccccc3)CC2)c1 [Compound 65]

NPY Y2 antagonist activity (in words) (NPY Y2 receptor): complete loss of activity
Structure (SMILES): OC(c1ccccc1)(c1ccccc1)C1CCN(C(=S)Nc2ccc(C(F)(F)F)cc2Cl)CC1 [Compound 29]
